Here are results for 21 compounds from patent US20240299387A1, “HETEROCYCLIC EGFR INHIBITORS FOR USE IN THE TREATMENT OF CANCER” (Blueprint Medicines Corporation, priority 2021, published 2024).

The target of assay [1] is T1, EGFR L858R T790M in NCI-H1975 cell line (Homo sapiens, UniProt P00533, L858R/T790M).
T1 construct: host or cells: NCI-H1975
The assay can be described thus: NCI-H1975 pEGFR AlphaLISA assay. To be noted: NCI-H1975 cells (EGFR L858R T790M), p-EGFR (Tyr1068), 4-5 hours incubation; read-out: Ext pEGFR H1975 GMean IC50 (nM) Protocol: @Pharmaron AlphaLISA (Num). The class given is cell-based. The essentials: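 Phospho-EGFR measured by AlphaLISA after overnight donor-bead incubation; IC50 from percent pEGFR inhibition versus log concentration.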

For another assay, the target named is T2, EGFR (L858R T790M C797S) (Homo sapiens, UniProt P00533, C797S/L858R/T790M).
T2 construct: purchased SignalChem E10-122VG
T2 sequence (P00533 25-1210 T790M/C797S/L858R): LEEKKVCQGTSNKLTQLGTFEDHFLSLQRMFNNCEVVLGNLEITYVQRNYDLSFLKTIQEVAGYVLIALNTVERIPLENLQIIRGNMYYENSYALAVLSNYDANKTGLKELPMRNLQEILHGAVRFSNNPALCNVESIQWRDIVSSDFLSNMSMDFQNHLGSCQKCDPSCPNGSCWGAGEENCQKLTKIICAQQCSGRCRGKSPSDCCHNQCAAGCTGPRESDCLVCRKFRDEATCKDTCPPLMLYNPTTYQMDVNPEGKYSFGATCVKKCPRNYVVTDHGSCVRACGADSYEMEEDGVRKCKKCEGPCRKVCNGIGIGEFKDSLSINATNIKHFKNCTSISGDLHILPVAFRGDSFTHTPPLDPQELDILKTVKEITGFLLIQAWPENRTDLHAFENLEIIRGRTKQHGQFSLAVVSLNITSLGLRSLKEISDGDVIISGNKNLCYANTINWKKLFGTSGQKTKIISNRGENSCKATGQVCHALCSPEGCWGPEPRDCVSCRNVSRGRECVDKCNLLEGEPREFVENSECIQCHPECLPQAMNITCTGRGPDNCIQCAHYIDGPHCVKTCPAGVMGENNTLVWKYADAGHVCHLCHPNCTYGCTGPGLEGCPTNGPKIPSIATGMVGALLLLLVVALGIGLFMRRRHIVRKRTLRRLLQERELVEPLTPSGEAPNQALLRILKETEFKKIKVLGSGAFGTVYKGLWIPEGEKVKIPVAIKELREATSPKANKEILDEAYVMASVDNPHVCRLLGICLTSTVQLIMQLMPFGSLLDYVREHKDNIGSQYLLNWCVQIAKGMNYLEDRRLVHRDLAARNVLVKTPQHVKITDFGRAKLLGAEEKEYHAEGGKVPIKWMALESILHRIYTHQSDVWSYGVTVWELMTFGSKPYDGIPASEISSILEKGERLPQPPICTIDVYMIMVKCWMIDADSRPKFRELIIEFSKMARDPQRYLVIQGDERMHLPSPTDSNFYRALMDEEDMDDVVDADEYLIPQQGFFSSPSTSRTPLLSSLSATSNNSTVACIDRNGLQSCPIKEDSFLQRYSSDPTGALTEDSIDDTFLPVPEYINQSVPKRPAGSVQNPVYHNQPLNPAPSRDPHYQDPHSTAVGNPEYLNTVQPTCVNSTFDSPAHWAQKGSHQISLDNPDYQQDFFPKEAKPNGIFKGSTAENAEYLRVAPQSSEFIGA
The assay can be described thus: Biochemical EGFR inhibition assay (Caliper mobility shift), EGFR LRTMCS mutant. Put shortly:
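Kinase reactions proceed at 25° C. to 10%–20% conversion of total peptide, are terminated with 35 mM EDTA, and the phosphopeptide is resolved from substrate by electrophoretic mobility shift. Apparent IC50 values come from plotting percent activity against log compound concentration.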

The subject of assay [2] is EGFR mutant NSCLC (EGFR M+). The conditions noted are these: NSCLC patients; average treatment time to resistance; cited from earlier work.
Where [3] appears, read: LRTMCS (PH) IC50 (nM) @ 1 mM ATP (Num).
Where [4] appears, read: read-out: LRTMCS (PH) IC50 (nM) @ 1 mM ATP (Num).

Read-outs that look alike come from different tables or passages of the source.

T1 sequence (P00533 25-1210 T790M/L858R): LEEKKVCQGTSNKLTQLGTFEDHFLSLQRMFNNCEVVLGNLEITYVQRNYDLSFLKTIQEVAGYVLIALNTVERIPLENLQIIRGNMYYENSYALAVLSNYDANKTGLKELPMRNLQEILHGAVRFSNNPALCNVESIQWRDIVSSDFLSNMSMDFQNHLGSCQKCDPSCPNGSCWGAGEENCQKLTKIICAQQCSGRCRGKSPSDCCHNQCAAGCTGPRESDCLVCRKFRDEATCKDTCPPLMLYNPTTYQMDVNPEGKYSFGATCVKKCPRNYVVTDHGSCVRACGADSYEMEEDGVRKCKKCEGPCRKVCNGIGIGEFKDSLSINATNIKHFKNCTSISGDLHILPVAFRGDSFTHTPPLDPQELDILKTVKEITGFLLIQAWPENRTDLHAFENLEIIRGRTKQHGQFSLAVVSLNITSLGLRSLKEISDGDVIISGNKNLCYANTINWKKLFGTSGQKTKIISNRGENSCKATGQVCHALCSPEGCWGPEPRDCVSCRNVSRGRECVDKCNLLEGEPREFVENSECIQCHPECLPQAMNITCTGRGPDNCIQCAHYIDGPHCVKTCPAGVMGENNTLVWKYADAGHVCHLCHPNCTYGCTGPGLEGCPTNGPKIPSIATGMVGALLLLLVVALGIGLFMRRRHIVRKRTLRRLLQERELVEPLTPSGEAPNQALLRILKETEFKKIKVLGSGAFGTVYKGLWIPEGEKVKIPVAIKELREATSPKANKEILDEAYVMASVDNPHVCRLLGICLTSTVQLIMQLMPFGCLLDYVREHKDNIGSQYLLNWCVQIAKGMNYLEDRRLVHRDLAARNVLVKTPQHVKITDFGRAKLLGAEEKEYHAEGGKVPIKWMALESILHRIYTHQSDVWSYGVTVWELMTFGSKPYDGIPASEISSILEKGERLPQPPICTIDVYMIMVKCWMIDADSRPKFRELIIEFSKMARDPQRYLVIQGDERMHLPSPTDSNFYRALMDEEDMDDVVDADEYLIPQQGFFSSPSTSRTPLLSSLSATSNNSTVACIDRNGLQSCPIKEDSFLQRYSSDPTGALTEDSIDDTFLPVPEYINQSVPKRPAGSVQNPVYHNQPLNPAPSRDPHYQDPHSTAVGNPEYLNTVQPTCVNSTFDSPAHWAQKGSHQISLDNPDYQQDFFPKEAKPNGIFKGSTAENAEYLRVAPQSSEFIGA

For `[2H]C([2H])([2H])O[C@H]1CCN(c2nccc(Nc3cc4c(C(C)C)ccc(OC[C@H]5CCC(=O)N5C)c4cn3)n2)C[C@H]1F` [Example 46, (R)-5-(((3-((2-((3R,4S)-3-fluoro-4-(methoxy-d3)piperidin-1-yl)pyrimidin-4-yl)amino)-5-isopropylisoquinolin-8-yl)oxy)methyl)-1-methylpyrrolidin-2-one], the IC50 in assay [1] is above 50 nM; at EGFR (L858R T790M C797S) (setting [3]) it was 15 to 20 nM.

As for `CC(C)c1cnc(C(=O)NCCN(C)C)c2cnc(Nc3ccnc(N4CC[C@@H](O)[C@@](C)(F)C4)n3)cc12` [Example 77, N-(2-(dimethylamino)ethyl)-6-((2-((3S,4R)-3-fluoro-4-hydroxy-3-methylpiperidin-1-yl)pyrimidin-4-yl)amino)-4-isopropyl-2,7-naphthyridine-1-carboxamide], the IC50 in assay [1] was 30 to 50 nM; at EGFR (L858R T790M C797S) (setting [3]), below 15 nM. Regarding `CC(C)c1ccc(OC[C@H]2COC(=O)N2C)c2cnc(Nc3ccnc(N4CC[C@@](C)(O)[C@@H](F)C4)n3)cc12` (single isomer, unassigned) [Example 23], the IC50 in assay [1] is 30 to 50 nM; on EGFR (L858R T790M C797S) (setting [4]), 15 to 20 nM.

For `CC(C)c1cnc(C(=O)N[C@H]2CN(C)C[C@H]2F)c2cnc(Nc3ccnc(N4CC[C@@H](O)[C@@](C)(F)C4)n3)cc12` (single isomer, unassigned) [Example 87], the values for the IC50 (in assay [1]; at EGFR (L858R T790M C797S) (setting [3])) were 10 to 20 nM and below 15 nM, respectively.

On to `CC(=O)N1CC(COc2ccc(C(C)C)c3cc(Nc4ccnc(N5CC[C@@](C)(O)[C@@H](F)C5)n4)ncc23)C1` [Example 11, 1-(3-(((3-((2-((3S,4R)-3-fluoro-4-hydroxy-4-methylpiperidin-1-yl)pyrimidin-4-yl)amino)-5-isopropylisoquinolin-8-yl)oxy)methyl)azetidin-1-yl)ethanone], for which the IC50 in assay [1] was above 50 nM; on EGFR (L858R T790M C797S) (setting [3]), 20 to 30 nM. The corresponding values for `CC(C)c1ccc(OC[C@H]2CCC(=O)N2C)c2cnc(Nc3ccnc(N4CC[C@](C)(O)[C@H](F)C4)n3)cc12` [Example 25, (R)-5-(((3-((2-((3R,4S)-3-fluoro-4-hydroxy-4-methylpiperidin-1-yl)pyrimidin-4-yl)amino)-5-isopropylisoquinolin-8-yl)oxy)methyl)-1-methylpyrrolidin-2-one] are above 50 nM and 15 to 20 nM. For `CC(C)c1ccc(OCCn2ccnc2)c2cnc(Nc3ccnc(N4CCC(C)(O)CC4)n3)cc12` [Example 17, 1-(4-((8-(2-(1H-imidazol-1-yl)ethoxy)-5-isopropylisoquinolin-3-yl)amino)pyrimidin-2-yl)-4-methylpiperidin-4-ol], in that order: above 50 nM and below 15 nM.

Turning to `[2H]C([2H])([2H])O[C@@H]1CCN(c2nccc(Nc3cc4c(C(C)C)ccc(OCCn5ccnc5)c4cn3)n2)C[C@@H]1F` [Example 49, 8-(2-(1H-imidazol-1-yl)ethoxy)-N-(2-((3S,4R)-3-fluoro-4-(methoxy-d3)piperidin-1-yl)pyrimidin-4-yl)-5-isopropylisoquinolin-3-amine], the IC50 was above 50 nM in assay [1] and 15 to 20 nM on EGFR (L858R T790M C797S) (setting [3]). For `CC(C)c1ccc(OCCn2cncn2)c2cnc(Nc3ccnc(N4CCC(C)(O)CC4)n3)cc12` [Example 15, 1-(4-((8-(2-(1H-1,2,4-triazol-1-yl)ethoxy)-5-isopropylisoquinolin-3-yl)amino)pyrimidin-2-yl)-4-methylpiperidin-4-ol], in that order: 30 to 50 nM and below 15 nM.

Turning to `CC(C)c1ccc(OCCn2ccnc2)c2cnc(Nc3ccnc(N4CC[C@@](C)(O)[C@@H](F)C4)n3)cc12` [Example 12, (3S,4R)-1-(4-((8-(2-(1H-imidazol-1-yl)ethoxy)-5-isopropylisoquinolin-3-yl)amino)pyrimidin-2-yl)-3-fluoro-4-methylpiperidin-4-ol], the IC50 is above 50 nM in assay [1] and below 15 nM on EGFR (L858R T790M C797S) (setting [3]). In the case of `CC(=O)N1CC(CNc2ccc(C(C)C)c3cc(Nc4ccnc(N5CC[C@@H](O)[C@@](C)(F)C5)n4)ncc23)C1` [Example 5, 1-(3-(((3-((2-((3S,4R)-3-fluoro-4-hydroxy-3-methylpiperidin-1-yl)pyrimidin-4-yl)amino)-5-isopropylisoquinolin-8-yl)amino)methyl)azetidin-1-yl)ethan-1-one], the half-maximal inhibitory concentration (IC50) in assay [1] was 20 to 30 nM; on EGFR (L858R T790M C797S) (setting [3]) it was below 15 nM. For `CC(C)c1cnc(C(=O)N[C@@H](C)CF)c2cnc(Nc3ccnc(N4CC[C@@H](O)[C@@](C)(F)C4)n3)cc12` [Example 72, 6-((2-((3S,4R)-3-fluoro-4-hydroxy-3-methylpiperidin-1-yl)pyrimidin-4-yl)amino)-N-((S)-1-fluoropropan-2-yl)-4-isopropyl-2,7-naphthyridine-1-carboxamide], in that order: above 50 nM and 15 to 20 nM. Regarding `CC(C)c1cnc(N(C)C)c2cnc(Nc3ccnc(N4CC[C@@H](O)[C@@H](F)C4)n3)cc12` [Example 94, (3S,4R)-1-(4-((8-(dimethylamino)-5-isopropyl-2,7-naphthyridin-3-yl)amino)pyrimidin-2-yl)-3-fluoropiperidin-4-ol], the results for the IC50 (in assay [1]; at EGFR (L858R T790M C797S) (setting [3])) were above 50 nM and 30 to 100 nM, respectively. Regarding `CC(C)c1ccc(OCCn2ccnn2)c2cnc(Nc3ccnc(N4CC[C@](C)(O)[C@H](F)C4)n3)cc12` [Example 32, (3R,4S)-1-(4-((8-(2-(1H-1,2,3-triazol-1-yl)ethoxy)-5-isopropylisoquinolin-3-yl)amino)pyrimidin-2-yl)-3-fluoro-4-methylpiperidin-4-ol], the IC50 in assay [1] was above 50 nM; on EGFR (L858R T790M C797S) (setting [3]) it was below 15 nM. Consider `CNc1ccc(C(C)C)c2cc(Nc3ccnc(N4CC[C@@H](O)[C@@](C)(F)C4)n3)ncc12` [Example 91, (3S,4R)-3-fluoro-1-(4-((5-isopropyl-8-(methylamino)isoquinolin-3-yl)amino)pyrimidin-2-yl)-3-methylpiperidin-4-ol], for which the IC50 in assay [1] was 20 to 30 nM; at EGFR (L858R T790M C797S) (setting [3]), below 15 nM. Consider `CC(C)c1ccc(OC[C@H]2CN(C)C(=O)O2)c2cnc(Nc3ccnc(N4CCC(C)(O)CC4)n3)cc12` [Example 16, (R)-5-(((3-((2-(4-hydroxy-4-methylpiperidin-1-yl)pyrimidin-4-yl)amino)-5-isopropylisoquinolin-8-yl)oxy)methyl)-3-methyloxazolidin-2-one], for which the IC50 was above 50 nM in assay [1] and 20 to 30 nM at EGFR (L858R T790M C797S) (setting [3]). For the compound `CC(C)c1ccc(OC[C@H](C)n2cnnc2)c2cnc(Nc3ccnc(N4CC[C@](C)(O)[C@H](F)C4)n3)cc12` [Example 36, (3R,4S)-1-(4-((8-((S)-2-(4H-1,2,4-triazol-4-yl)propoxy)-5-isopropylisoquinolin-3-yl)amino)pyrimidin-2-yl)-3-fluoro-4-methylpiperidin-4-ol], the IC50 is above 50 nM in assay [1] and 15 to 20 nM at EGFR (L858R T790M C797S) (setting [3]). For `CC(C)c1cnc(C(=O)NC2CC2)c2cnc(Nc3ccnc(N4CC[C@@H](O)[C@@](C)(F)C4)n3)cc12` [Example 68, N-cyclopropyl-6-((2-((3S,4R)-3-fluoro-4-hydroxy-3-methylpiperidin-1-yl)pyrimidin-4-yl)amino)-4-isopropyl-2,7-naphthyridine-1-carboxamide], in that order: above 50 nM and 15 to 20 nM.

Turning to `CC(=O)N1CC(C)(COc2ccc(C(C)C)c3cc(Nc4ccnc(N5CC[C@@H](O)[C@@](C)(F)C5)n4)ncc23)C1` [Example 7, 1-(3-(((3-((2-((3S,4R)-3-fluoro-4-hydroxy-3-methylpiperidin-1-yl)pyrimidin-4-yl)amino)-5-isopropylisoquinolin-8-yl)oxy)methyl)-3-methylazetidin-1-yl)ethan-1-one], the IC50 in assay [1] was 30 to 50 nM; at EGFR (L858R T790M C797S) (setting [3]), 15 to 20 nM. For `C=CC(=O)Nc1cc(Nc2nccc(-c3cn(C)c4ccccc34)n2)c(OC)cc1N(C)CCN(C)C` [osimertinib], the “time of treatment until resistance is observed” value in assay [2] is recorded as “approximately 10 months”.

Regarding `CC(C)c1ccc(OCCn2cnnc2)c2cnc(Nc3ccnc(N4CC[C@H]5COC[C@H]54)n3)cc12` (single isomer, unassigned) [Example 51], the half-inhibitory concentration (IC50) is above 50 nM in assay [1] and 20 to 30 nM on EGFR (L858R T790M C797S) (setting [4]).
